Test results from patent US6194465A, “Benzamide therapeutics for the treatment of inflammatory bowel disease” (priority 1999, dated 2001).
“Also recorded” adds a separate entry of the source. Where two headings read alike, the source gives them in different places.

Legend:
[1] = tested on: TNBS-induced colonic tissue damage; experiment: TNBS model, dosing after TNBS treatment (morphology, MPO, wet weight); type: in vivo, rats
Experimental: As a follow-on set of experiments we investigated the effects of multiple doses of Compound A administered after TNBS treatment.
Experimental conditions were similar to those described above except that rats were given either Compound A (30 mg/kg PO) or vehicle, administered 4, 8 and 24 hours after TNBS treatment for at total of 3 doses.
In another series of experiments to investigate the duration of action of Compound A was designed to advance previous observations and determine whether a single dose of 90 mg/kg po Compound A given either 4, 8, or 24 hrs after the TNBS enema would reduce the colonic damage.
Experimental conditions were similar to those described above except that rats were given a single large dose of Compound A (90 mg/kg PO) or vehicle either 4, 8 or 24 hours after TNBS treatment.

[2] = Absolute oral bioavailability (AUC oral vs IV, 20 mg/kg); type: in vivo, rats; details: rat, blood
Experimental: Blood concentrations were determined at 0, 0.083, 0.15, 0.5, 1, 2, 4, 8, and 24 hours post-IV dose and 0, 0.5, 1, 2, 4 and 8 hours post-oral dose. Four animals were dosed orally and four animals were dosed intravenously.
The blood samples were analyzed by HPLC. Detection was by UV at 262 nm. Responses were converted to concentrations by comparison to responses from calibration standards injected onto the column. The resulting concentrations were used to calculate the AUC.

TNBS-induced colitis = experiment: TNBS model of IBD, Compound A given before TNBS (morphology, tissue weight); type: in vivo, Male Sprague-Dawley rats
Source text: The trinitrobenzene sulphonic acid ("TNBS") model is one of the standard IBD models used in IBD discovery research, and has been extensively evaluated in rodents. A single enema of TNBS induces a prolonged colonic inflammatory response (up to several weeks) that is transmural and is accompanied by oxidative damage as evidenced by an increase in myeloperoxidase ("MPO") activity. Furthermore, the inflammation is characterized by discrete areas of acute necrosis, inflammation and muscle thickening. Agents with anti-inflammatory effects in patients with IBD show efficacy in this model. Although the mechanism by which TNBS induces an inflammatory response is unknown, it is thought to have an immunological basis.
Male Sprague-Dawley rats (200-250 g) were housed in standard cages (2 per cage) and fed rat chow and tap water ad libitum. After an overnight fast, rats were brought into the laboratory and randomized into treatment groups. Colitis was induced by intrarectal administration of 0.5 ml of TNBS solution (50 mg/kg in 50% ethanol) using a 1 ml syringe attached to a 5 cm polyethylene catheter. Control animals received saline (0.9%) or a 1 % methyl cellulose suspension at identical time points.
Three days after TNBS administration, the rats were sacrificed and the colons excised and opened longitudinally.
The weights of each 5 cm colonic segment were also recorded to assess inflammatory induced edema.
For PO (oral) dosing, Compound A was administered by oral gavage 30 mg/kg as a 1% carboxy methyl cellulose ("CMC") suspension 1 hour prior to the administration of TNBS. Control rats were given CMC only. For IV (intravenous) dosing, Compound A was administered 30 mg/kg by tail vein injection in a 75% PEG/25 % water solution 1 hour prior to administration of TNBS. Control rats were given an injection of 75% PEG/25 % water only. Six rats were dosed for each route of administration.
An additional study was conducted varying the amount of Compound A administered to the rats. Doses of 10 mg/kg, 30mg/kg, and 70 mg/kg were given by oral administration.
A study was run to determine whether or not the effectiveness of Compound A was dependent upon when it was administered relative to the TNBS administration.
Groups of rats (N=11/group) were administered increasing doses of Compound A (0-90 mg/kg-po) 1 hour prior to TNBS enema. In addition to macroscopic assessment, the wet weight of the tissue was also measured as an additional secondary efficacy parameter.

DSS-induced colitis = experiment: Mouse Dextran Sulfate (DSS) IBD model; type: in vivo, Swiss-Webster mice
Experimental: Another model used for screening candidate IBD-treating compounds is the Dextran Sulfate ("DSS") model. Similar to the TNBS model, DSS induced colitis is widely used as a screening tool for IBD therapeutics. When administered orally, DSS induces IBD-like symptoms in Swiss-Webster mice. This model is used to determine the effectiveness of compounds of this invention when such compounds are administered orally (p.o.)
Individually housed 30-40 g male Swiss-Webster mice (B & K Universal, Fremont, Calif.) received 3% DSS (Sigma Chemicals, St. Louis, Mo.) in their drinking water for 7 days. All animals received food and water ad libitum.
Two groups of mice were dosed orally with either Compound A in a dosing vehicle (1% methyl cellulose, dose range of 10 mg/kg to 30 mg/kg) or dosing vehicle alone (control).
Clinical signs of colitis were assessed by a disease activity index ("DAI") consisting of changes in stool characteristics, fecal occult bleeding and body weight loss. The DAI is very similar to the Crohn's Disease Activity Index used in clinical trials to evaluate new agents to prevent/treat IBD. The DAI data were analyzed using Proc Anova in SAS with a Bonferoni post-hoc analysis, and Model 108 in WinNonlin™ (Professional Version 1.5, Scientific Consulting, Apex, NC) for the ED50 and Emax values. The wet weight and myeloperoxidase ("MPO") data (collected only on Day 7) were analyzed by Proc TTest in SAS. MPO is a marker for neutrophil infiltration.
Stool Characteristic: 0=normal, 2=loose and 4=diarrhea
Fecal Occult Blood: 0=negative, 2=positive, 4=gross bleeding
Two strips of colonic tissue/mouse
MPO activity by spectrophotometric assay

[3] = 30 mg/kg PO at 4, 8 and 24 hours after TNBS
[4] = 0-90 mg/kg po, 1 hour prior to TNBS

With `CC(=O)Nc1ccc(C(=O)NC(C)(C)C)cc1` [Compound A, N-tert-butyl-4-acetamidobenzamide] the “MPO activity, 3 doses after TNBS (in words)” value [1, 3] was “decrease in MPO activity”, the “colonic tissue damage, 3 doses after TNBS” value [1, 3] was “significantly reduced” and the “tissue wet weight, 3 doses after TNBS (in words)” value [1, 3] was “reduction in tissue wet weight”. The “inflammatory damage, single dose after TNBS” value ([1]; 90 mg/kg po, 4, 8 or 24 hours after TNBS) was “prevents inflammatory damage; also recorded: less efficacy than the 3 dose (30 mg/kg) oral regimen”, the bioavailability ([2]; in rats, as restated, read-out: bioavailability) was 50% and the bioavailability ([2]; oral 20 mg/kg in 1% methyl cellulose vs IV 20 mg/kg in 75% PEG, read-out: absolute bioavailability) was 52%. For the same compound, the “colonic morphological score (in words)” value (TNBS-induced colitis; [4]) was “dose-dependent reduction”, the “wet weight of colonic segments (in words)” value (TNBS-induced colitis; [4]) was “dose-dependent reduction” and the “protective effects, 10 mg/kg” value (TNBS-induced colitis; 10 mg/kg oral) was “minimal protective effects”. For the same compound, the “severity of IBD symptoms / protection from TNBS damage, IV” value (TNBS-induced colitis; 30 mg/kg IV, 1 hour before TNBS) was “decreases the severity of IBD symptoms; also recorded: protected from the damage induced by TNBS; also recorded: greater protection seen following IV administration; also recorded: intravenous administration of Compound A also provides protection”, the “protective effects, 30 mg/kg” value (TNBS-induced colitis; 30 mg/kg oral) was “increased protective effects” and the “severity of IBD symptoms / protection from TNBS damage, PO” value (TNBS-induced colitis; 30 mg/kg po, 1 hour before TNBS) was “decrease the severity of IBD symptoms; also recorded: protected from the damage induced by TNBS”. For the same compound, the “protection, administered 120 mins before TNBS” value (TNBS-induced colitis; 30 mg/kg po, 120 mins pretreatment) was “less protective compared to the 60 min pretreatment period”, the “protective effects, 70 mg/kg” value (TNBS-induced colitis; 70 mg/kg oral) was “strongest protective effect” and the “protection, administered 1 hour before TNBS” value (TNBS-induced colitis; 1 hour (60 min) pretreatment) was “best protection”. The “tissue weight (in words)” value (TNBS-induced colitis; IV and PO, 30 mg/kg) was “suggest protection, but not as convincingly as the morphology and MPO activity results”, the “activity in protecting colon tissue, summary (in words)” value (TNBS-induced colitis; IV or PO) was “good activity in protecting colon tissue from damage” and the “protection, administered 240 mins before TNBS” value (TNBS-induced colitis; single dose, 240 mins pretreatment) was “little protection against morphological changes”. The “MPO values (in words)” value (DSS-induced colitis; Day 7) was “the protection was not statistically significant”, the “wet weight (in words)” value (DSS-induced colitis; Day 7) was “the protection was not statistically significant” and the “protective effect against DSS-induced colitis” value (DSS-induced colitis; oral, 10 mg/kg to 30 mg/kg) was “showed protective effect against DSS-induced colitis”. The “significance of protective effect by day” value (DSS-induced colitis; oral, 10 mg/kg to 30 mg/kg) was “statistically significant on days 3, 4, 5 and 7”, the “estimated ED50” value (DSS-induced colitis; oral, DSS model, WinNonlin) was “approximately 15 mg/kg” and the “estimated Emax” value (DSS-induced colitis; oral, DSS model, WinNonlin) was ~80 % protection.
